Laboratory results reported in patent US20250289789A1, “REVERSIBLE LYSINE COVALENT MODIFIERS OF CDK2 AND USES THEREOF” (Terremoto Biosciences, Inc., priority 2023, published 2025).
≈ marks a conversion by molar mass, not a printed value.

Test: Solubility determination in PBS pH 7.4
Format: physicochemical
Settings: aqueous buffer, kinetic from dmso stock; PBS pH 7.4, 2 hours, 25° C.; the listed prodrug
Experimental: Stock solutions (10 mM DMSO, 30 μL) of each sample were placed into 96-well plate, along with 970 μL of PBS pH 7.4 were added into each vial of the cap-less solubility sample plate. The assay was performed in duplicate. A stir stick was added to each well and sealed using a molded PTFE/Silicone plug. Then the Solubility Sample plate was transferred to an Eppendorf Thermomixer Comfort plate shaker and shaken at 1100 RPM for 2 hours at 25° C. After completion the plugs and stir sticks were removed and the samples were transferred into a filter plate and filtered using a vacuum manifold. 5 μL aliquots of filtrate were taken and diluted with 5 μL DMSO and 490 μL of a 1:1 v/v mixture of H2O and acetonitrile. 200 μL of diluent was transferred to a new 96-well plate for LC-MS/MS analysis. The solution was analyzed and quantified against a standard of known concentration in DMSO using LC coupled with Mass spectral peak for identification and quantitation.

Row | SMILES | solubility at 2 h
1 | CC/N=C/c1c(O)cc(OC)cc1OCC(=O)Nc1cc([C@H]2CC[C@@H](OC(=O)NC(C)C)C2)[nH]n1 [Compound 64c, (1R,3S)-3-(3-(2-(2-((E)-(ethylimino)methyl)-3-hydroxy-5-methoxyphenoxy)acetamido)-1H-pyrazol-5-yl)cyclopentyl isopropylcarbamate] | 246 µM (≈ 120 µg/mL)
2 | CCCC/N=C/c1c(O)cc(OC)cc1OCC(=O)Nc1cc([C@H]2CC[C@@H](OC(=O)NC(C)C)C2)[nH]n1 [Compound 64d, (1R,3S)-3-(3-(2-(2-((E)-(butylimino)methyl)-3-hydroxy-5-methoxyphenoxy)acetamido)-1H-pyrazol-5-yl)cyclopentyl isopropylcarbamate] | 67 µM (≈ 34.5 µg/mL)
3 | COc1cc(O)c(/C=N/C(C)C)c(OCC(=O)Nc2cc([C@H]3CC[C@@H](OC(=O)NC(C)(C)C)C3)[nH]n2)c1 [Compound 128a, (1R,3S)-3-(3-(2-(3-hydroxy-2-((E)-(isopropylimino)methyl)-5-methoxyphenoxy)acetamido)-1H-pyrazol-5-yl)cyclopentyl tert-butylcarbamate] | 191 µM (≈ 98.5 µg/mL)
4 | CCOC(=O)C/N=C/c1c(O)cc(OC)cc1OCC(=O)Nc1cc([C@H]2CC[C@@H](OC(=O)NC(C)C)C2)[nH]n1 [Compound 64p, Ethyl 2-(((E)-2-hydroxy-6-(2-((5-((1S,3R)-3-((isopropylcarbamoyl)oxy)cyclopentyl)-1H-pyrazol-3-yl)amino)-2-oxoethoxy)-4-methoxybenzylidene)amino)acetate] | 4.8 µM (≈ 2.62 µg/mL)
5 | COc1cc(O)c(/C=N/C(C)C)c(OCC(=O)Nc2cc([C@H]3CC[C@@H](OC(=O)NC(C)C)C3)[nH]n2)c1 [Compound 64a, (1R,3S)-3-(3-(2-(3-hydroxy-2-((E)-(isopropylimino)methyl)-5-methoxyphenoxy)acetamido)-1H-pyrazol-5-yl)cyclopentyl isopropylcarbamate] | 215 µM (≈ 108 µg/mL)
6 | CC(C)/N=C/c1c(O)cccc1OCC(=O)Nc1cc([C@H]2CC[C@@H](OC(=O)NC3(C)CC3)C2)[nH]n1 [Compound 82a, (1R,3S)-3-(3-(2-(3-hydroxy-2-((E)-(isopropylimino)methyl)phenoxy)acetamido)-1H-pyrazol-5-yl)cyclopentyl (1-methylcyclopropyl)carbamate] | 34 µM (≈ 16.4 µg/mL)
7 | CCC/N=C/c1c(O)cc(OC)cc1OCC(=O)Nc1cc([C@H]2CC[C@@H](OC(=O)NC(C)C)C2)[nH]n1 [Compound 64b, (1R,3S)-3-(3-(2-(3-hydroxy-5-methoxy-2-((E)-(propylimino)methyl)phenoxy)acetamido)-1H-pyrazol-5-yl)cyclopentyl isopropylcarbamate] | 79 µM (≈ 39.6 µg/mL)
8 | Cc1cc(O)c(/C=N/C(C)C)c(OCC(=O)Nc2cc([C@H]3CC[C@@H](OC(=O)NC4(C)CC4)C3)[nH]n2)c1 [Compound 145a, (1R,3S)-3-(3-(2-(3-hydroxy-2-((E)-(isopropylimino)methyl)-5-methylphenoxy)acetamido)-1H-pyrazol-5-yl)cyclopentyl (1-methylcyclopropyl)carbamate] | 68 µM (≈ 33.8 µg/mL)

Continued, values first:

Row | solubility at 2 h | SMILES
9 | 149 µM (≈ 78.3 µg/mL) | COc1cc(O)c(/C=N/C(C)C)c2c1CC(C(=O)Nc1cc([C@H]3CC[C@@H](OC(=O)NC(C)(C)C)C3)[nH]n1)C2 (single isomer, unassigned) [Compound 283a, (1R,3S)-3-(3-((*)-5-hydroxy-4-((E)-(isopropylimino)methyl)-7-methoxy-2,3-dihydro-1H-indene-2-carboxamido)-1H-pyrazol-5-yl)cyclopentyl tert-butylcarbamate]
10 | 6.7 µM (≈ 3.27 µg/mL) | COc1cc(O)c(/C=N/C(C)C)c(OCC(=O)Nc2cc([C@H]3C[C@@H](OC(=O)NC(C)C)C3)[nH]n2)c1 [Compound 223a, (1s,3s)-3-(3-(2-(3-hydroxy-2-((E)-(isopropylimino)methyl)-5-methoxyphenoxy)acetamido)-1H-pyrazol-5-yl)cyclobutyl isopropylcarbamate]
11 | 41 µM (≈ 21.1 µg/mL) | CCC/N=C/c1c(O)cc(OC)cc1OCC(=O)Nc1cc([C@H]2CC[C@@H](OC(=O)NC3(C)CC3)C2)[nH]n1 [Compound 251b, (1R,3S)-3-(3-(2-(3-hydroxy-5-methoxy-2-((E)-(propylimino)methyl)phenoxy)acetamido)-1H-pyrazol-5-yl)cyclopentyl (1-methylcyclopropyl)carbamate]
12 | 253 µM (≈ 133 µg/mL) | COc1cc(O)c(/C=N/C(C)C)c2c1CC(C(=O)Nc1cc([C@H]3CC[C@@H](OC(=O)N(C)N(C)C)C3)n[nH]1)C2 (single isomer, unassigned) [Compound 284a, (1R,3S)-3-(5-((*)-5-hydroxy-4-((E)-(isopropylimino)methyl)-7-methoxy-2,3-dihydro-1H-indene-2-carboxamido)-1H-pyrazol-3-yl)cyclopentyl 1,2,2-trimethylhydrazine-1-carboxylate]
13 | 227 µM (≈ 117 µg/mL) | COc1cc(O)c(/C=N/C(C)C)c(OCC(=O)Nc2cc([C@H]3CC[C@@H](OC(=O)N(C)N(C)C)C3)[nH]n2)c1 [Compound 172a, (1R,3S)-3-(3-(2-(3-hydroxy-2-((E)-(isopropylimino)methyl)-5-methoxyphenoxy)acetamido)-1H-pyrazol-5-yl)cyclopentyl 1,2,2-trimethylhydrazine-1-carboxylate]
14 | 50 µM (≈ 25.7 µg/mL) | COc1cc(O)c(/C=N/C(C)C)c(OCC(=O)Nc2cc([C@H]3CC[C@@H](OC(=O)NC4(C)CC4)C3)[nH]n2)c1 [Compound 251a, (1R,3S)-3-(3-(2-(3-hydroxy-2-((E)-(isopropylimino)methyl)-5-methoxyphenoxy)acetamido)-1H-pyrazol-5-yl)cyclopentyl (1-methylcyclopropyl)carbamate]
15 | 156 µM (≈ 78.2 µg/mL) | CCCNC(=O)O[C@@H]1CC[C@H](c2cc(NC(=O)COc3cc(OC)cc(O)c3/C=N/C(C)C)n[nH]2)C1 [Compound 221a, (1R,3S)-3-(3-(2-(3-hydroxy-2-((E)-(isopropylimino)methyl)-5-methoxyphenoxy)acetamido)-1H-pyrazol-5-yl)cyclopentyl propylcarbamate]

Test: Oral bioavailability and pharmacokinetic analysis following oral administration in Nu/Nu mice
Settings: male, in vivo
Experimental: Compound was administered via oral gavage in male Nu/Nu mice (n=3). The vehicle composition was 10% N-Methylpyrrolidone, 40% PEG300, 50% water (pH=4-8) at 6 mg-equivalent/mL to parent drug and a dose volume of 5 mL/Kg. Formulations were prepared freshly before dosing and stored at room temperature. Plasma samples were collected at the following time intervals: 0.5, 1, 2, 4, 8, 12, 24, 48, and 72 hours post dose (based on the start of oral dosing). Serial blood samples were collected (approximately 0.025 mL) via retro-orbital vein into K2EDTA. Whole blood was processed into plasma by centrifuge (4000 rpm for 5 minutes at 4° C.) followed by addition of 0.5 M ammonium formate (pH=3, 300% of plasma volume). Plasma samples were stored in a freezer at −75±15° C. until analysis. Plasma samples were analyzed after thawing and incubating for 1 h at 37° C. followed by protein precipitation with acetonitrile containing IS mixture (vortex 30 s, centrifugation at 4° C., 400 rpm for 15 min) and the resulting supernatant was further diluted with water before injecting onto Shimadzu 8060 LC-MS/MS system for analysis. Unknown plasma samples concentration was calibrated using standard range of 0.2 to 1 000 ng/mL for parent.
Bioavailability (% F) was calculated by comparing observed plasma concentrations of parent drug after oral administration of prodrug or parent drug to observed plasma concentrations via IV (intravenous) administration of parent drug.

Row | SMILES | Prodrug Mouse % F
16 | COc1cc(O)c(/C=N/C(C)C)c(OCC(=O)Nc2cc([C@H]3CC[C@@H](OC(=O)N4CC5CC(C4)O5)C3)[nH]n2)c1 [Compound 235a, (1R,3S)-3-(3-(2-(3-hydroxy-2-((E)-(isopropylimino)methyl)-5-methoxyphenoxy)acetamido)-1H-pyrazol-5-yl)cyclopentyl 6-oxa-3-azabicyclo[3.1.1]heptane-3-carboxylate] | 3.2%
17 | COc1cc(O)c(/C=N/C(C)C)c(OCC(=O)Nc2cc([C@H]3CC[C@@H](OC(=O)N4C5COCC4C5)C3)[nH]n2)c1 [Compound 231a, (1R,3S)-3-(3-(2-(3-hydroxy-2-((E)-(isopropylimino)methyl)-5-methoxyphenoxy)acetamido)-1H-pyrazol-5-yl)cyclopentyl 3-oxa-6-azabicyclo[3.1.1]heptane-6-carboxylate] | 2.8%

Same assay, conditions: male, mouse, in vivo, 6 mg

Row | SMILES | Prodrug AUCinf
18 | COc1cc(O)c(/C=N/C(C)C)c(OCC(=O)Nc2cc([C@H]3CC[C@@H](OC(=O)N4CC5CC(C4)O5)C3)[nH]n2)c1 [Compound 235a, (1R,3S)-3-(3-(2-(3-hydroxy-2-((E)-(isopropylimino)methyl)-5-methoxyphenoxy)acetamido)-1H-pyrazol-5-yl)cyclopentyl 6-oxa-3-azabicyclo[3.1.1]heptane-3-carboxylate] | 15.2 µM·h
19 | COc1cc(O)c(/C=N/C(C)C)c(OCC(=O)Nc2cc([C@H]3CC[C@@H](OC(=O)N4C5COCC4C5)C3)[nH]n2)c1 [Compound 231a, (1R,3S)-3-(3-(2-(3-hydroxy-2-((E)-(isopropylimino)methyl)-5-methoxyphenoxy)acetamido)-1H-pyrazol-5-yl)cyclopentyl 3-oxa-6-azabicyclo[3.1.1]heptane-6-carboxylate] | 12.9 µM·h
